Consider 24 compounds from patent publication US20050176813A1, “Novel chalcone derivatives and uses thereof” (priority 2002, published 2005).

This data set has as its target Kv1.3 (Homo sapiens, UniProt P22001). Put plainly: Kv1.3 channel block, estimated Kd (Table 1). The data set is classed as binding. The following applies: for Block phasic or not: Kv1.3.
[1] abbreviates: Kv1.3, peak, read-out: Est. Kd, Kd peak.
Setting [2] is: Kv1.3, end, read-out: Est. Kd, Kd end.

Structures are written as SMILES. Where two headings read alike, the source gives them in different places.

Chain of Kv1.3 (P22001 whole entry): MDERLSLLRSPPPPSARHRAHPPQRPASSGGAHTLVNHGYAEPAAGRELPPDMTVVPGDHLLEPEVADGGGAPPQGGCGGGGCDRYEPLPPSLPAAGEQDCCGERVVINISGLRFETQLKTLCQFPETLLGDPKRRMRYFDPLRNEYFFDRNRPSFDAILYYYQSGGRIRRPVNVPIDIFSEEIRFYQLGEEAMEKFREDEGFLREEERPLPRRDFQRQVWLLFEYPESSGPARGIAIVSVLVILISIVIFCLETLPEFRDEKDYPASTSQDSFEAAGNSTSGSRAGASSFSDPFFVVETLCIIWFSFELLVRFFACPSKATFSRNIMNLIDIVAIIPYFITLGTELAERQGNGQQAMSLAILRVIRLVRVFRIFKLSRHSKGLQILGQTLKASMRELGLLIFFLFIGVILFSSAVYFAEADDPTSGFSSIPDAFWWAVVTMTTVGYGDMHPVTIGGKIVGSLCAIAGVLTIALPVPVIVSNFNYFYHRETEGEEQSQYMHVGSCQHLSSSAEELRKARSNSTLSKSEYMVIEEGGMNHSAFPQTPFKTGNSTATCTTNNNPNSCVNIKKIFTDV

A word on the Kd: it is the free concentration of one partner at which half of the binding sites on the other are occupied at equilibrium, for simple one-to-one binding. In the case of `COc1c(C(=O)/C=C/C=C/c2ccc(N(C)C)cc2)c(O)c(OC)c2occc12` [Example 44], the “Block phasic or not” value is reported as “not phasic”. Also, the Kd under setting [1] was 22 µM.
`COc1c(C(=O)/C=C/c2ccc(C(F)(F)F)cc2)c(O)c(OC)c2occc12` [Example 33]: the Kd reads like this: under setting [2], 4 µM; under setting [1], 10 µM.
Taken in the same sequence, the figures for `COc1c(C(=O)/C=C/c2ccc[nH]2)c(O)c(OC)c2occc12` [Example 51] were 9 µM and 30 µM.
The like results for `COc1c(C(=O)/C=C/c2sccc2C)c(O)c(OC)c2occc12` [Example 56] were, in that order, 6 µM and 25 µM.
As to `COc1c(C(=O)/C=C/c2ccc3ccccc3c2)c(O)c(OC)c2occc12` [Example 39], the “Effect on Kv1.3” value (at 5 μM) is given as “no effect at 5 μM Not tested against other channels”.
On to `COc1c(C(=O)/C=C/c2ccccc2F)c(O)c(OC)c2occc12` [Example 15], for which the Kd by setting is: under setting [2], 12 µM; under setting [1], 90 µM.
Take `COc1c(C(=O)/C=C/c2ccc(C(C)C)cc2)c(O)c(OC)c2occc12` [Example 20]: the “Block phasic or not” value was “not phasic”. The Kd under setting [1] is 3 µM.
Regarding `CCN(CC)c1ccc(/C=C/C(=O)c2c(O)c(OC)c3occc3c2OC)cc1` [Example 13], the “Block phasic or not” value was “not phasic”. The equilibrium dissociation constant (Kd) under setting [1] was 18 µM.
Take `COc1c(C(=O)/C=C/c2ccc(F)cc2)c(O)c(OC)c2occc12` [Example 17]: the Kd by setting is: under setting [2], 1 µM; under setting [1], 8 µM.
With `COc1c(C(=O)/C=C/c2ccccc2C(=O)O)c(O)c(OC)c2occc12` [Example 41], for the setting “at 20 μM”, the “Effect on Kv1.3” value was “no effect at 20 μM Not tested against other channels”.
With `COc1c(C(=O)/C=C/c2cccc(Oc3ccc(C)cc3)c2)c(O)c(OC)c2occc12` [Example 37], the “Effect on Kv1.3” value (at 1 μM) is “no effect at 1 μM Not tested against other channels”.
On to `COc1c(C(=O)/C=C/c2ccc([N+](=O)[O-])s2)c(O)c(OC)c2occc12` [Example 57], for which the “Effect on Kv1.3” value (at 10 μM) is “No effect at 10 μM”.
Consider `COc1c(C(=O)/C=C/c2ccc(O)cc2)c(O)c(OC)c2occc12` [Example 19], for which the Kd was 0.9 µM under setting [2] and 10 µM under setting [1].
For the compound `COc1c(C(=O)/C=C/c2cccc(Cl)c2)c(O)c(OC)c2occc12` [Example 8], the “Block phasic or not” value is recorded as “not phasic”. Also, the Kd under setting [1] is 15 µM.
The like results for `COc1c(C(=O)/C=C/c2cccc(C(F)(F)F)c2)c(O)c(OC)c2occc12` [Example 32] were, in that order, “not phasic” and 40 µM.
Regarding `COc1c(C(=O)/C=C/c2cccc3ccccc23)c(O)c(OC)c2occc12` [Example 38], the “Effect on Kv1.3” value (at 5 μM) is “no effect at 5 μM Not tested against other channels”.
On the same count and under the same terms, in the case of `COc1c(C(=O)/C=C/c2ccc3ccccc3n2)c(O)c(OC)c2occc12` [Example 58] it was “No effect at 5 μM”.
As for `COc1c(C(=O)/C=C/c2ccccc2C)c(O)c(OC)c2occc12` [Example 21], the “Block phasic or not” value is on record as “not phasic”. In addition, under setting [1], the Kd was 2 µM.
On to `COc1c(C(=O)/C=C/c2ccc([N+](=O)[O-])cc2)c(O)c(OC)c2occc12` [Example 29], for which the “Behaviour of stocks in the Kv1.3 test” value (stock solutions) was “Stocks precipitate”.
`COc1c(O)c(C(=O)CCc2ccccc2)c(OC)c2c1OCC2` [Example 3]: under setting [1], the Kd was 2 µM.
For the compound `COc1c(C(=O)/C=C/c2ccc(Cl)cc2)c(O)c(OC)c2occc12` [Example 9], the “Block phasic or not” value is listed as “not phasic”. Besides, the Kd under setting [1] was 7 µM.
Turning to `COc1c(C(=O)/C=C/c2cccnc2)c(O)c(OC)c2occc12` [Example 48], the Kd was 9 µM under setting [2] and 20 µM under setting [1].
In the case of `COc1c(C(=O)/C=C/c2ccncc2)c(O)c(OC)c2occc12` [Example 49], the “Block phasic or not” value is on record as “not phasic”. The Kd under setting [1] is 20 µM.
On to `COc1c(C(=O)CCc2ccccc2)c(O)c(OC)c2occc12` [Example 2], for which the Kd reads like this: under setting [2], 0.3 µM; under setting [1], 0.8 µM.
